Measured values from PubChem BioAssay AID2060908 (Molecular Pharmacology Branch, DTP, NCI, 2025).
Blank lines part the entries; values can stand above or below the molecule they belong to.

Test system: 186277-243-T-J2-PDC complex spheroids, viability
Test: Anticancer human tumor 186277-243-T-J2-PDC patient-derived colon adenocarcinoma cell line growth inhibition [RAS]
Settings: for IC50: curve of first compound; for viability, T/C: stronger effect = lower value
Method in brief: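 Multi-cell-type spheroids: tumor cells plus HUVEC endothelial cells and mesenchymal stem cells. RAS-pathway inhibitors were combined with targeted agents, each dosed in half-log steps down from clinical Cmax, or from 10 microM when Cmax was unknown.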

[1] = second compound 0.000949 µM, first compound 0.00316 µM
[2] = second compound 0.000949 µM, first compound 0.01 µM
[3] = second compound 0.000949 µM, first compound 0.0316 µM
[4] = second compound 0.000949 µM, first compound 0.1 µM
[5] = second compound 0.000949 µM, first compound 0.316 µM
[6] = second compound 0.000949 µM, first compound 1 µM
[7] = second compound 0.003 µM, first compound 0.00316 µM
[8] = second compound 0.003 µM, first compound 0.01 µM
[9] = second compound 0.003 µM, first compound 0.0316 µM
[10] = second compound 0.003 µM, first compound 0.1 µM
[11] = second compound 0.003 µM, first compound 0.316 µM
[12] = second compound 0.003 µM, first compound 1 µM
[13] = second compound 0.00949 µM, first compound 0.00316 µM
[14] = second compound 0.00949 µM, first compound 0.01 µM
[15] = second compound 0.00949 µM, first compound 0.0316 µM
[16] = second compound 0.00949 µM, first compound 0.1 µM
[17] = second compound 0.00949 µM, first compound 0.316 µM
[18] = second compound 0.00949 µM, first compound 1 µM
[19] = second compound 0.03 µM, first compound 0.00316 µM
[20] = second compound 0.03 µM, first compound 0.01 µM
[21] = second compound 0.03 µM, first compound 0.0316 µM
[22] = second compound 0.03 µM, first compound 0.1 µM
[23] = second compound 0.03 µM, first compound 0.316 µM
[24] = second compound 0.03 µM, first compound 1 µM
[25] = second compound 0.0949 µM, first compound 0.00316 µM
[26] = second compound 0.0949 µM, first compound 0.01 µM
[27] = second compound 0.0949 µM, first compound 0.0316 µM
[28] = second compound 0.0949 µM, first compound 0.1 µM
[29] = second compound 0.0949 µM, first compound 0.316 µM
[30] = second compound 0.0949 µM, first compound 1 µM
[31] = second compound 0.3 µM, first compound 0.00316 µM
[32] = second compound 0.3 µM, first compound 0.01 µM
[33] = second compound 0.3 µM, first compound 0.0316 µM
[34] = second compound 0.3 µM, first compound 0.1 µM
[35] = second compound 0.3 µM, first compound 0.316 µM
[36] = second compound 0.3 µM, first compound 1 µM
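Note: spheroids exposed to compounds for 7 days before viability read.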

- IC50 (second compound 0.000949 µM): 96.5 nM
- IC50 (second compound 0.003 µM): 91.5 nM
- IC50 (second compound 0.00949 µM): 86.5 nM
- IC50 (second compound 0.03 µM): 90.9 nM
- IC50 (second compound 0.0949 µM): 74.2 nM
- IC50 (second compound 0.3 µM): 54 nM
Compound: O=C(c1ccc(F)c(F)c1Nc1ccc(I)cc1F)N1CC(O)([C@@H]2CCCCN2)C1 + CCn1c(-c2cccnc2C(C)OC)c2c3cc(ccc31)N1CCOC(CC(NC(=O)C(C(C)C)N(C)C(=O)C3(F)CCN(C(=O)C#CC(C)(C)N(C)C)CC3)C(=O)N3CCCC(N3)C(=O)OCC(C)(C)C2)C1
- viability, T/C [1]: 98.9%
- viability, T/C [2]: 102%
- viability, T/C [3]: 99.6%
- viability, T/C [4]: 48.2%
- viability, T/C [5]: 9.52%
- viability, T/C [6]: 4.41%
- viability, T/C [7]: 82.9%
- viability, T/C [8]: 94.6%
- viability, T/C [9]: 87.5%
- viability, T/C [10]: 46.5%
- viability, T/C [11]: 10.4%
- viability, T/C [12]: 3.64%
- viability, T/C [13]: 91.7%
- viability, T/C [14]: 105%
- viability, T/C [15]: 89.4%
- viability, T/C [16]: 44.2%
- viability, T/C [17]: 9.08%
- viability, T/C [18]: 4.42%
- viability, T/C [19]: 100%
- viability, T/C [20]: 93.9%
- viability, T/C [21]: 98.9%
- viability, T/C [22]: 45.7%
- viability, T/C [23]: 9.74%
- viability, T/C [24]: 4.04%
- viability, T/C [25]: 121%
- viability, T/C [26]: 114%
- viability, T/C [27]: 86.9%
- viability, T/C [28]: 37.3%
- viability, T/C [29]: 9.15%
- viability, T/C [30]: 3.51%
- viability, T/C [31]: 119%
- viability, T/C [32]: 101%
- viability, T/C [33]: 72.7%
- viability, T/C [34]: 25.3%
- viability, T/C [35]: 6.5%
- viability, T/C [36]: 2.7%

- IC50 (second compound 0.000949 µM): 64 nM
- IC50 (second compound 0.003 µM): 31.5 nM
- IC50 (second compound 0.00949 µM): < 3.16 nM
- IC50 (second compound 0.03 µM): < 3.16 nM
- IC50 (second compound 0.0949 µM): < 3.16 nM
- IC50 (second compound 0.3 µM): < 3.16 nM
Compound: O=C(c1ccc(F)c(F)c1Nc1ccc(I)cc1F)N1CC(O)([C@@H]2CCCCN2)C1 + CCn1c(-c2cc(N3CCN(C)CC3)cnc2C(C)OC)c2c3cc(ccc31)-c1csc(n1)CC(NC(=O)C1CC1C)C(=O)N1CCCC(N1)C(=O)OCC(C)(C)C2
- viability, T/C [1]: 92.7%
- viability, T/C [2]: 89.7%
- viability, T/C [3]: 83%
- viability, T/C [4]: 29.1%
- viability, T/C [5]: 8.1%
- viability, T/C [6]: 4.25%
- viability, T/C [7]: 114%
- viability, T/C [8]: 97.8%
- viability, T/C [9]: 47.8%
- viability, T/C [10]: 18.8%
- viability, T/C [11]: 6.27%
- viability, T/C [12]: 3.79%
- viability, T/C [13]: 43.6%
- viability, T/C [14]: 30.6%
- viability, T/C [15]: 13.6%
- viability, T/C [16]: 7.57%
- viability, T/C [17]: 4.59%
- viability, T/C [18]: 3.19%
- viability, T/C [19]: 14.9%
- viability, T/C [20]: 9.48%
- viability, T/C [21]: 6.73%
- viability, T/C [22]: 3.92%
- viability, T/C [23]: 3.2%
- viability, T/C [24]: 2.56%
- viability, T/C [25]: 6.07%
- viability, T/C [26]: 5.43%
- viability, T/C [27]: 4.04%
- viability, T/C [28]: 2.64%
- viability, T/C [29]: 2.57%
- viability, T/C [30]: 2.4%
- viability, T/C [31]: 5%
- viability, T/C [32]: 4.75%
- viability, T/C [33]: 2.99%
- viability, T/C [34]: 2.73%
- viability, T/C [35]: 2.91%
- viability, T/C [36]: 2.4%

- IC50 (second compound 0.000949 µM): 9.82 nM
- IC50 (second compound 0.003 µM): 13.6 nM
- IC50 (second compound 0.00949 µM): 11.1 nM
- IC50 (second compound 0.03 µM): 10.2 nM
- IC50 (second compound 0.0949 µM): 7.53 nM
- IC50 (second compound 0.3 µM): 2.85 nM
Compound: CCc1c2c(nc3ccc(O)cc13)-c1cc3c(c(=O)n1C2)COC(=O)[C@]3(O)CC + CCn1c(-c2cccnc2C(C)OC)c2c3cc(ccc31)N1CCOC(CC(NC(=O)C(C(C)C)N(C)C(=O)C3(F)CCN(C(=O)C#CC(C)(C)N(C)C)CC3)C(=O)N3CCCC(N3)C(=O)OCC(C)(C)C2)C1
- viability, T/C (second compound 0.000949 µM, first compound 0.000949 µM): 157%
- viability, T/C (second compound 0.000949 µM, first compound 0.003 µM): 83.7%
- viability, T/C (second compound 0.000949 µM, first compound 0.00949 µM): 52.5%
- viability, T/C (second compound 0.000949 µM, first compound 0.03 µM): 35.5%
- viability, T/C (second compound 0.000949 µM, first compound 0.0949 µM): 17.3%
- viability, T/C (second compound 0.000949 µM, first compound 0.3 µM): 12.1%
- viability, T/C (second compound 0.003 µM, first compound 0.000949 µM): 142%
- viability, T/C (second compound 0.003 µM, first compound 0.003 µM): 91.9%
- viability, T/C (second compound 0.003 µM, first compound 0.00949 µM): 55.8%
- viability, T/C (second compound 0.003 µM, first compound 0.03 µM): 37.4%
- viability, T/C (second compound 0.003 µM, first compound 0.0949 µM): 18.2%
- viability, T/C (second compound 0.003 µM, first compound 0.3 µM): 12.9%
- viability, T/C (second compound 0.00949 µM, first compound 0.000949 µM): 142%
- viability, T/C (second compound 0.00949 µM, first compound 0.003 µM): 85.4%
- viability, T/C (second compound 0.00949 µM, first compound 0.00949 µM): 53.8%
- viability, T/C (second compound 0.00949 µM, first compound 0.03 µM): 34.4%
- viability, T/C (second compound 0.00949 µM, first compound 0.0949 µM): 15.9%
- viability, T/C (second compound 0.00949 µM, first compound 0.3 µM): 12.1%
- viability, T/C (second compound 0.03 µM, first compound 0.000949 µM): 139%
- viability, T/C (second compound 0.03 µM, first compound 0.003 µM): 80.6%
- viability, T/C (second compound 0.03 µM, first compound 0.00949 µM): 54.1%
- viability, T/C (second compound 0.03 µM, first compound 0.03 µM): 33%
- viability, T/C (second compound 0.03 µM, first compound 0.0949 µM): 17%
- viability, T/C (second compound 0.03 µM, first compound 0.3 µM): 12.2%
- viability, T/C (second compound 0.0949 µM, first compound 0.000949 µM): 102%
- viability, T/C (second compound 0.0949 µM, first compound 0.003 µM): 68.6%
- viability, T/C (second compound 0.0949 µM, first compound 0.00949 µM): 48%
- viability, T/C (second compound 0.0949 µM, first compound 0.03 µM): 25%
- viability, T/C (second compound 0.0949 µM, first compound 0.0949 µM): 15.1%
- viability, T/C (second compound 0.0949 µM, first compound 0.3 µM): 10.3%
- viability, T/C (second compound 0.3 µM, first compound 0.000949 µM): 69.7%
- viability, T/C (second compound 0.3 µM, first compound 0.003 µM): 47.5%
- viability, T/C (second compound 0.3 µM, first compound 0.00949 µM): 34%
- viability, T/C (second compound 0.3 µM, first compound 0.03 µM): 17.7%
- viability, T/C (second compound 0.3 µM, first compound 0.0949 µM): 10.5%
- viability, T/C (second compound 0.3 µM, first compound 0.3 µM): 8.49%
